Test results from patent publication US11083197B2, “Herbicidal composition comprising chromone derivatives and a method for weed control” (INVESTIGACIONES BIOLÓGICAS EN AGROQUÍMICOS ROSARIO S.A., priority 2015, dated 2021).

Experiments:
[1] = system: lettuce; assay: Phytotoxic effect on lettuce under different conditions of illumination; type: in vivo, Lactuca sativa; details: 1 mM; light versus darkness; 7 days
Experimental: Bioassays were carried out with lettuce in Petri dishes using the commercial standards of each compound. Lettuce seeds were incubated with 4 mL of an aqueous solution of compounds or acetochlor at 1 mM. Lettuce growth was measured at 7 days of incubation.
The results of this test are shown in FIG. 14 where the Left column (diagonal stripes)=Light and the Right column (in black)=Darkness. Acetochlor was included as a reference of pre-emergent herbicide and to get the highest herbicidal effect, all compounds were tested at 1 mM. Data represent means of three replicates±SD. Different letters above the bars indicate significant differences between treatments (p<0.05).

[2] = system: cucumber cotyledon disks; assay: Photosynthetic efficiency (chlorophyll fluorescence, ETR); type: cell-based; details: after 24 h of incubation in the light (42 h total)
Experimental: The effects of pure compounds of formulas III and IV were evaluated by chlorophyll fluorescence measurements according to Dayan and Zaccaro.^24 Cucumber cotyledon disks were exposed to different dilutions of each furanochromone (10, 30, 100 and 300 μM). Control tissues were exposed to the same solvent as treated tissues but without the test compounds. The cotyledon disks were incubated in darkness for 18 h before exposure to light for 24 h. Photosynthetic quantum yield and electron transport rate (ETR) were measured. ETR values were expressed as percent of the ETR average values observed in control treatments. A time-course experiment was performed by measuring induced fluorescence of cotyledon disks after treatment at 3 h in darkness (start), after 18 h in darkness, after which the samples were placed in the light, and further measurements were made after 6 and 24 h of light exposure. The results of this experiment are shown in FIG. 16 (A: khellin [compound of formula III] and B: visnagin [compound of formula IV]). Three replicates were performed for each experiment. Bars represent, from left to right in each grouping, start, 18 h dark, 6 h light, and 24 h light.

[3] = system: cucumber cotyledon disks; assay: Detection and measurement of reactive oxygen species (DCFDA); type: cell-based; details: 300 μM; for ROS levels: 16 h darkness then high light intensity 5 h; for ROS generation: complete darkness for 30 h
Experimental: ROS cellular localization was determined by confocal microscopy using the fluorescent probe 2′,7′-dichlorofluorescein diacetate (DCFDA). Cucumber cotyledon disks (1 cm) were treated as described for the electrolyte leakage assay. Five disks were placed in 5 cm-Petri plates and exposed to different dilutions of compounds of formulas III and IV (0, 100 and 300 μM). Disks were incubated in darkness for 16 h before exposure to high light intensity for 5 h, or in darkness for 30 h. As positive control, disks were exposed to the same solvent as treated tissues but with 10 mM hydrogen peroxide (H2O2) for 30 min in the light. After each treatment, they were vacuum-infiltrated in the dark with 50 μM DCFDA in 10 mM Tris-HCl pH 7.5, and ROS were visualized in an Eclipse TE-2000-E2 Nikon confocal microscope with excitation at 488 nm and emission at 515/530 nm. Green fluorescence intensities were quantified using the image processing package Fiji of ImageJ software.

[4] = system: A. cepa root meristem cells; assay: Effect on cell division (mitotic index analysis); type: cell-based, Allium cepa; details: for inhibition of cell division: 0 to 1000 μM; for reversibility of inhibition of cellular division: 100 μM, seeds washed at 3 days; for proportion of cells with abnormal configurations: chromosome aberrations, nuclear abnormalities, micronuclei
Experimental: Onion seeds (Allium Cepa L. Evergreen Longwhite Bunching, Burpee & Co, 2012, EE.UU) germination was carried out for 7 days with a 14-h photoperiod in 9-cm-diameter Petri dishes on a filter paper disk that was moistened with a dilution (2.5 mL) of test compound or control. Stock solutions of test compounds (100×) were prepared in acetone, and aliquots were diluted in distilled water to get the final concentration. The control consisted of water with the same proportion of acetone (1% v/v) applied in the treatments.
At 7 days of incubation, samples were processed for mitotic index analysis according to Armbruster et al.^25 Twenty root tips (1-cm sections) were fixed in glacial acetic acid:absolute ethanol (1:3 v/v) for 30 min. The segments were incubated with 5 N HCl at 25° C. for 1 h, and washed several times with distilled water. After that, segments were stained with Schiff's reagent for 45 min in the dark at 25° C. Stained meristematic regions were identified as purple tips. The root segments were transferred with tweezers to a drop of 45% acetic acid in water on a microscope slide. The tips were cut with a razor blade, and a cover slip was carefully placed over the tips and gently squashed by applying slight and constant pressure directly over the tissues. The edge of the cover slip was sealed with nail polish to delay the evaporation of acetic acid. The mitotic index was calculated by tallying the cells in various stages of mitosis. At least 1,000 cells/slide and in triplicate (3,000 cells per treatment) were counted for suitable statistical analysis of data. An Olympus BX60 microscope (Olympus, Center Valley) was used, and cells with abnormal mitotic configurations were counted as a separate class.
This procedure was slightly modified to evaluate if cell division inhibition caused by furanochromones was reversible. For this experiment onion seeds were incubated with solutions containing compounds of formulas III and IV for 3 days. After this period, all seeds were washed three times with distilled water and placed in new Petri dishes on moistened filter paper disks with distilled water (Wash+treatment). Seeds were then incubated for 4 more days, after which a mitotic index analysis was performed. As a reference to compare results, another set of onion seeds was kept with test compounds or control for 7 days (Wash−treatment) before analysis.

[5] = system: onion root tips; assay: Cell death determination by Evans blue staining, root tips; type: cell-based, Allium cepa; details: 4 days; for increase in relative cell death: 100 μM; for increase in relative cell death compared to 100 μM: 300 μM
Experimental: To evaluate cell death in roots, onion seeds were germinated and treated as described in postemergence assay with weed species. Onion seedlings were exposed to different doses of compounds of formulas III and IV (0, 100 and 300 μM) during 4 days. For the experiment with leaf disks 3-weeks-cucumber plants were used. One disk (1 cm) was placed in each well of a 12-well plate together with 1 mL of a 2% w/v sucrose/1 mM MES, pH 6.5 solution containing each of the compounds tested at the appropriate concentration (0, 100 or 300 μM) and acetone (1% v/v). Each assay was performed with leaf disks from different plants. Plates were sealed with Parafilm and incubated in a growth chamber at 21-27° C. with a 16/8 h light/dark cycle for 7 days.
Cell death was determined by Evans blue staining.^26 Root tips (5-mm sections) and leaf disks were incubated for 30 min in 0.25% w/v Evans blue aqueous solution at 25° C. on a rotary shaker. After staining, unbound dye was removed by extensive washing with deionized water. Three root tips (3 replicates) or one leaf disk (4 replicates) were ground in a tissue grind tube with 500 μL 1% w/v sodium dodecyl sulfate (SDS). The resulting suspension was centrifuged for 20 min at 20,000 g and the supernatant was used for dye quantification by monitoring the absorbance at 600 and 680 nm. Relative cell death was expressed as A600 for root tips and A600/A680 ratios for leaf disks.

COc1c2ccoc2cc2oc(C)cc(=O)c12 [Formula IV, 4-methoxy-7-methyl-5H-furo[3,2-g]chromen-5-one]
light dependence of phytotoxicity or herbicidal activity [1]: not a light-dependent process | reduction of electron transport rate (ETR) ([2]; 100 μM): ~35% | reduction of electron transport rate (ETR) ([2]; 300 μM): ~50% | ROS levels [3]: significantly higher than in the control | ROS generation [3]: not detected | inhibition of cell division ([4]; 7 days): inhibited cell division in a dose-dependent manner | reversibility of inhibition of cellular division [4]: irreversible | inhibition of onion cell division ([4]; 300 μM, 7 days): completely inhibited | proportion of cells with abnormal configurations [4]: higher than in the control | increase in relative cell death [5]: two-fold | increase in relative cell death compared to 100 μM [5]: two-fold

COc1c2occc2c(OC)c2c(=O)cc(C)oc12 [Formula III, 4,9-dimethoxy-7-methyl-5H-furo[3,2-g]chromen-5-one]
light dependence of phytotoxicity or herbicidal activity [1]: not a light-dependent process | reduction of electron transport rate (ETR) ([2]; 100 μM): ~35% | reduction of electron transport rate (ETR) ([2]; 300 μM): ~50% | ROS levels [3]: significantly higher than in the control | ROS generation [3]: not detected | inhibition of cell division ([4]; 7 days): inhibited cell division in a dose-dependent manner | reversibility of inhibition of cellular division [4]: irreversible | proportion of cells with abnormal configurations [4]: higher than in the control | increase in relative cell death [5]: two-fold | increase in relative cell death compared to 100 μM [5]: two-fold
